pIC50: −log10 of the molar value.
Test system: 254851-301-R-J1-PDC spheroids, viability % test/control
Test: Anticancer human tumor 254851-301-R-J1-PDC patient-derived colon carcinoma cell line growth inhibition [TAK]
Details: spheroids with HUVEC and MSC; for pIC50: curve of first compound; for viability, T/C: stronger effect = lower value
How it was run: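 Tumor cells were grown as spheroids with HUVEC and hMSC (60:25:15) and treated with targeted agents combined with TAK-243 or ipatasertib. Drugs were tested in half-log steps down from near the clinical Cmax, or from 10 microM where Cmax was unknown.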

[1] = second compound 0.3 µM, first compound 0.0316 µM
[2] = second compound 0.3 µM, first compound 0.1 µM
[3] = second compound 0.3 µM, first compound 0.316 µM
[4] = second compound 0.3 µM, first compound 1 µM
[5] = second compound 0.3 µM, first compound 3.16 µM
[6] = second compound 0.3 µM, first compound 10 µM
[7] = second compound 0.949 µM, first compound 0.0316 µM
[8] = second compound 0.949 µM, first compound 0.1 µM
[9] = second compound 0.949 µM, first compound 0.316 µM
[10] = second compound 0.949 µM, first compound 1 µM
[11] = second compound 0.949 µM, first compound 3.16 µM
[12] = second compound 0.949 µM, first compound 10 µM
[13] = second compound 3 µM, first compound 0.0316 µM
[14] = second compound 3 µM, first compound 0.1 µM
[15] = second compound 3 µM, first compound 0.316 µM
[16] = second compound 3 µM, first compound 1 µM
[17] = second compound 3 µM, first compound 3.16 µM
[18] = second compound 3 µM, first compound 10 µM
[19] = second compound 9.49 µM, first compound 0.0316 µM
[20] = second compound 9.49 µM, first compound 0.1 µM
[21] = second compound 9.49 µM, first compound 0.316 µM
[22] = second compound 9.49 µM, first compound 1 µM
[23] = second compound 9.49 µM, first compound 3.16 µM
[24] = second compound 9.49 µM, first compound 10 µM
[25] = second compound 30 µM, first compound 0.0316 µM
[26] = second compound 30 µM, first compound 0.1 µM
[27] = second compound 30 µM, first compound 0.316 µM
[28] = second compound 30 µM, first compound 1 µM
[29] = second compound 30 µM, first compound 3.16 µM
[30] = second compound 30 µM, first compound 10 µM
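Also: spheroids exposed to drugs for seven days before viability readout.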
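For viability, T/C in this document: 100% = DMSO vehicle control viability.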

## CC(C)(C)c1nc(-c2cccc(NS(=O)(=O)c3c(F)cccc3F)c2F)c(-c2ccnc(N)n2)s1 + CC(C)NCC(C(=O)N1CCN(c2ncnc3c2C(C)CC3O)CC1)c1ccc(Cl)cc1
Second compound 0.3 µM
  pIC50: < 5.00
Second compound 0.949 µM
  pIC50: < 5.00
Second compound 3 µM
  pIC50: < 5.00
Second compound 9.49 µM
  pIC50: < 5.00
Second compound 30 µM
  pIC50: < 5.00
[1]
  viability, T/C: 114%
[2]
  viability, T/C: 103%
[3]
  viability, T/C: 87.3%
[4]
  viability, T/C: 84.8%
[5]
  viability, T/C: 77%
[6]
  viability, T/C: 72%
[7]
  viability, T/C: 115%
[8]
  viability, T/C: 104%
[9]
  viability, T/C: 95.2%
[10]
  viability, T/C: 81%
[11]
  viability, T/C: 76%
[12]
  viability, T/C: 75.4%
[13]
  viability, T/C: 106%
[14]
  viability, T/C: 107%
[15]
  viability, T/C: 88.1%
[16]
  viability, T/C: 79.4%
[17]
  viability, T/C: 75.6%
[18]
  viability, T/C: 63.8%
[19]
  viability, T/C: 101%
[20]
  viability, T/C: 105%
[21]
  viability, T/C: 92.5%
[22]
  viability, T/C: 78.4%
[23]
  viability, T/C: 71.8%
[24]
  viability, T/C: 64.7%
[25]
  viability, T/C: 79%
[26]
  viability, T/C: 81.7%
[27]
  viability, T/C: 83.9%
[28]
  viability, T/C: 69.1%
[29]
  viability, T/C: 59.7%
[30]
  viability, T/C: 54.6%

## CC(C)CC(NC(=O)CNC(=O)c1cc(Cl)ccc1Cl)B1OC(=O)CC(CC(=O)O)(C(=O)O)O1 (stereo not given) + CC(C)NCC(C(=O)N1CCN(c2ncnc3c2C(C)CC3O)CC1)c1ccc(Cl)cc1
Second compound 0.3 µM
  pIC50: 7.27
Second compound 0.949 µM
  pIC50: 7.30
Second compound 3 µM
  pIC50: 7.31
Second compound 9.49 µM
  pIC50: 7.24
Second compound 30 µM
  pIC50: 7.24
Second compound 0.3 µM, first compound 0.000316 µM
  viability, T/C: 103%
Second compound 0.3 µM, first compound 0.001 µM
  viability, T/C: 100%
Second compound 0.3 µM, first compound 0.00316 µM
  viability, T/C: 95.8%
Second compound 0.3 µM, first compound 0.01 µM
  viability, T/C: 101%
[1]
  viability, T/C: 73.7%
[2]
  viability, T/C: 22.2%
Second compound 0.949 µM, first compound 0.000316 µM
  viability, T/C: 98.6%
Second compound 0.949 µM, first compound 0.001 µM
  viability, T/C: 102%
Second compound 0.949 µM, first compound 0.00316 µM
  viability, T/C: 95.3%
Second compound 0.949 µM, first compound 0.01 µM
  viability, T/C: 95%
[7]
  viability, T/C: 67.3%
[8]
  viability, T/C: 23.2%
Second compound 3 µM, first compound 0.000316 µM
  viability, T/C: 95.8%
Second compound 3 µM, first compound 0.001 µM
  viability, T/C: 107%
Second compound 3 µM, first compound 0.00316 µM
  viability, T/C: 98.9%
Second compound 3 µM, first compound 0.01 µM
  viability, T/C: 102%
[13]
  viability, T/C: 70.2%
[14]
  viability, T/C: 17.9%
Second compound 9.49 µM, first compound 0.000316 µM
  viability, T/C: 96.8%
Second compound 9.49 µM, first compound 0.001 µM
  viability, T/C: 101%
Second compound 9.49 µM, first compound 0.00316 µM
  viability, T/C: 97.7%
Second compound 9.49 µM, first compound 0.01 µM
  viability, T/C: 95.1%
[19]
  viability, T/C: 76.6%
[20]
  viability, T/C: 24.5%
Second compound 30 µM, first compound 0.000316 µM
  viability, T/C: 78.2%
Second compound 30 µM, first compound 0.001 µM
  viability, T/C: 63%
Second compound 30 µM, first compound 0.00316 µM
  viability, T/C: 81.4%
Second compound 30 µM, first compound 0.01 µM
  viability, T/C: 86%
[25]
  viability, T/C: 80%
[26]
  viability, T/C: 24.4%

## CCCS(=O)(=O)Nc1ccc(F)c(C(=O)c2c[nH]c3ncc(-c4ccc(Cl)cc4)cc23)c1F + CC(C)NCC(C(=O)N1CCN(c2ncnc3c2C(C)CC3O)CC1)c1ccc(Cl)cc1
Second compound 0.3 µM
  pIC50: < 4.00
Second compound 0.949 µM
  pIC50: < 4.00
Second compound 3 µM
  pIC50: < 4.00
Second compound 9.49 µM
  pIC50: < 4.00
Second compound 30 µM
  pIC50: < 4.00
[3]
  viability, T/C: 92.5%
[4]
  viability, T/C: 90.3%
[5]
  viability, T/C: 63.9%
[6]
  viability, T/C: 68.4%
Second compound 0.3 µM, first compound 31.6 µM
  viability, T/C: 38.1%
Second compound 0.3 µM, first compound 100 µM
  viability, T/C: 85.7%
[9]
  viability, T/C: 99.2%
[10]
  viability, T/C: 95.1%
[11]
  viability, T/C: 79.4%
[12]
  viability, T/C: 64.8%
Second compound 0.949 µM, first compound 31.6 µM
  viability, T/C: 30.2%
Second compound 0.949 µM, first compound 100 µM
  viability, T/C: 76.8%
[15]
  viability, T/C: 79.7%
[16]
  viability, T/C: 88.8%
[17]
  viability, T/C: 70.3%
[18]
  viability, T/C: 67.9%
Second compound 3 µM, first compound 31.6 µM
  viability, T/C: 20.2%
Second compound 3 µM, first compound 100 µM
  viability, T/C: 82.5%
[21]
  viability, T/C: 95.3%
[22]
  viability, T/C: 85.3%
[23]
  viability, T/C: 71%
[24]
  viability, T/C: 51.5%
Second compound 9.49 µM, first compound 31.6 µM
  viability, T/C: 52.3%
Second compound 9.49 µM, first compound 100 µM
  viability, T/C: 83%
[27]
  viability, T/C: 91.5%
[28]
  viability, T/C: 92.8%
[29]
  viability, T/C: 82.6%
[30]
  viability, T/C: 51.8%
Second compound 30 µM, first compound 31.6 µM
  viability, T/C: 26.7%
Second compound 30 µM, first compound 100 µM
  viability, T/C: 80.7%

Reference: PubChem BioAssay AID2060358 (Molecular Pharmacology Branch, DTP, NCI, 2025)
